{
  "source": "ChEMBL document CHEMBL5113525",
  "about": "“Discovery of the Novel 1H-Pyrrolo[2,3-b]pyridine Derivative as a Potent Type II CDK8 Inhibitor against Colorectal Cancer” (J Med Chem, 2022)",
  "key": {"[1]": {"target": "Serine/threonine-protein kinase pim-1 (Homo sapiens) (UniProt P11309)", "sequence (P11309 whole entry, looked up)": "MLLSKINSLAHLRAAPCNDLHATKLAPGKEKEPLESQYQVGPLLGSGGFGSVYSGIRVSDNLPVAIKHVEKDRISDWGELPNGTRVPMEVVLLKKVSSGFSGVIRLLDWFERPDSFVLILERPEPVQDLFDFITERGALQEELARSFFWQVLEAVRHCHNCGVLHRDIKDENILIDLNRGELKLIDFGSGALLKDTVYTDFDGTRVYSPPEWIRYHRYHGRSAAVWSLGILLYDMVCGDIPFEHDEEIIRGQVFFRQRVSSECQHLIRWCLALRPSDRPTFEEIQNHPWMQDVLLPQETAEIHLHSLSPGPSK", "test": "Inhibition of human PIM1 at 1 uM relative to control"}, "[2]": {"target": "Epithelial discoidin domain-containing receptor 1 (Homo sapiens) (UniProt Q08345)", "test": "Inhibition of human DDR1 at 1 uM relative to control"}, "[3]": {"target": "Dual specificity protein kinase CLK1 (Homo sapiens) (UniProt P49759)", "sequence (P49759 whole entry, looked up)": "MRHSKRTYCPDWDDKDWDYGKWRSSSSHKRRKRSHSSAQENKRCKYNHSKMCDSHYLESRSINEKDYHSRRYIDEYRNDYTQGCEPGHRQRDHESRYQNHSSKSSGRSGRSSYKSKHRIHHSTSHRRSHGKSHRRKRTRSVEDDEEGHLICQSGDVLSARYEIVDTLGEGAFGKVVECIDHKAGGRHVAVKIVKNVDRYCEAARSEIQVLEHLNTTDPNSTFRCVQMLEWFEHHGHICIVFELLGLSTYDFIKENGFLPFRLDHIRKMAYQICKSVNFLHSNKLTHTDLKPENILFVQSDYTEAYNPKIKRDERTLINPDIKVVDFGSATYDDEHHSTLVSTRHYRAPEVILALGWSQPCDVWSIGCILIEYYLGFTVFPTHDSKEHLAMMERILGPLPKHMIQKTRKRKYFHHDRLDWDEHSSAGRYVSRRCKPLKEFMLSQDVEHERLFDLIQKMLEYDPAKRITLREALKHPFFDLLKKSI", "test": "Inhibition of human CLK1 at 1 uM relative to control"}, "[4]": {"target": "Tyrosine-protein kinase Lyn (Homo sapiens) (UniProt P07948)", "test": "Inhibition of human LYN at 1 uM relative to control"}, "[5]": {"target": "Dual specificity protein kinase CLK4 (Homo sapiens) (UniProt Q9HAZ1)", "test": "Inhibition of human CLK4 at 1 uM relative to control"}, "[6]": {"target": "MAP kinase-interacting serine/threonine-protein kinase 2 (Homo sapiens) (UniProt Q9HBH9)", "sequence (Q9HBH9 whole entry, looked up)": "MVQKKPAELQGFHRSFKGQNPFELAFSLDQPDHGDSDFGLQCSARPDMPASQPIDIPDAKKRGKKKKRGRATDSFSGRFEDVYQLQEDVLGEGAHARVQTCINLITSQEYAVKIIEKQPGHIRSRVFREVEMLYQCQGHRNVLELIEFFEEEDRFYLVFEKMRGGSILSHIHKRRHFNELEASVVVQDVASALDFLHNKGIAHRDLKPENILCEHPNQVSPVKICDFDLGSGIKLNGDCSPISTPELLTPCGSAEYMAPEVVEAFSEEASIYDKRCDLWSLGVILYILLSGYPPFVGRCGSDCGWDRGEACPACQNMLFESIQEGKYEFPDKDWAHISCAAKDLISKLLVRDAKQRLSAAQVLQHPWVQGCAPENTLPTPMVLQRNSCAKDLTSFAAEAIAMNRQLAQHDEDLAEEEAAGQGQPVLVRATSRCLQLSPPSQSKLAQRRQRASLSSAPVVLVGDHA", "test": "Inhibition of human MNK2 at 1 uM relative to control"}, "[7]": {"target": "Dual specificity protein kinase CLK2 (Homo sapiens) (UniProt P49760)", "test": "Inhibition of human CLK2 at 1 uM relative to control"}, "[8]": {"target": "Glycogen synthase kinase-3 alpha (Homo sapiens) (UniProt P49840)", "sequence (P49840 2-483 limits assumed)": "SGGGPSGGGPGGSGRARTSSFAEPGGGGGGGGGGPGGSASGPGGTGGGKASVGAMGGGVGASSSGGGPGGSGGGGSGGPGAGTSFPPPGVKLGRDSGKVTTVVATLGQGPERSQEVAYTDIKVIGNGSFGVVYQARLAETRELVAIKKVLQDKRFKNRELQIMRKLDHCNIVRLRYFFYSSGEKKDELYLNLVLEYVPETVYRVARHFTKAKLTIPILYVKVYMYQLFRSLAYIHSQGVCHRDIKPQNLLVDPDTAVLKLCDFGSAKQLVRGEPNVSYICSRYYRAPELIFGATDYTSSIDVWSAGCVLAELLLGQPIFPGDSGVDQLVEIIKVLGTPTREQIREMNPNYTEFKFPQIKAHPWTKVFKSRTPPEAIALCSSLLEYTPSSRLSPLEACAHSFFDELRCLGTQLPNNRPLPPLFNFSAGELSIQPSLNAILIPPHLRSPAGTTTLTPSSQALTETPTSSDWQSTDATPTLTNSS", "test": "Inhibition of human GSK3A at 1 uM relative to control"}, "[9]": {"test": "AUC(0 to infinity) in Sprague-Dawley rat at 5 mg/kg, iv measured upto 12 hrs by LC-MS/MS analysis", "type": "ADME, organism-based", "set-up": "time < 12 hrs, dose 5 mg/kg, route iv", "conditions": "in vivo"}, "[10]": {"target": "Mitogen-activated protein kinase 10 (Homo sapiens) (UniProt P53779)", "sequence (P53779 whole entry)": "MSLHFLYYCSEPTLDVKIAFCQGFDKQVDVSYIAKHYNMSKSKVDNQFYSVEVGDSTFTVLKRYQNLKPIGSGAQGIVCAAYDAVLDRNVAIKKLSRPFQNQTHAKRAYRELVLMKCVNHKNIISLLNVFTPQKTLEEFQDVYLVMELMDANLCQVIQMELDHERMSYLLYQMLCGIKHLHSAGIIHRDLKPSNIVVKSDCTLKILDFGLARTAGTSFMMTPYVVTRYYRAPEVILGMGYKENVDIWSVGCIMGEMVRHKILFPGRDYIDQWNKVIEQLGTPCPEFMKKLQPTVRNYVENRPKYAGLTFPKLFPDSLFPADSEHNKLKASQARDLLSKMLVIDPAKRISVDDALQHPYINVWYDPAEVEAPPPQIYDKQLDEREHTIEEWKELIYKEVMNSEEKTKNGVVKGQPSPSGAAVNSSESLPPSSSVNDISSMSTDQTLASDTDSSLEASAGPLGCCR", "test": "Inhibition of human JNK3 at 1 uM relative to control"}, "[11]": {"target": "3-phosphoinositide-dependent protein kinase 1 (Homo sapiens) (UniProt O15530)", "sequence (O15530 whole entry, looked up)": "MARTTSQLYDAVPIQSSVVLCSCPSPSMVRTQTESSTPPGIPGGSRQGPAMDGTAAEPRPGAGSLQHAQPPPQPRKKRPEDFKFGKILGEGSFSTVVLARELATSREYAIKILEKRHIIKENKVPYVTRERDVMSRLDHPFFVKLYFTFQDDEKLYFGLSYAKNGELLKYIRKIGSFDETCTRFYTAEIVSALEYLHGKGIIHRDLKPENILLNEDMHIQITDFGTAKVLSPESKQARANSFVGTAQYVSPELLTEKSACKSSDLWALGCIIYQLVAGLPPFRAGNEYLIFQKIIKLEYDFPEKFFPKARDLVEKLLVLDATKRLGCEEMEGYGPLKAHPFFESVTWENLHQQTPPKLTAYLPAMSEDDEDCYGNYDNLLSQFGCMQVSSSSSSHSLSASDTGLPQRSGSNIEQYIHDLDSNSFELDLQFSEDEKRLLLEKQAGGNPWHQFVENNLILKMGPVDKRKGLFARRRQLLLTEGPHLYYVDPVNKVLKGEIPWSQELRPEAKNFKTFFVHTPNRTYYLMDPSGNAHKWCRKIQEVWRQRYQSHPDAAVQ", "test": "Inhibition of human PDK1 at 1 uM relative to control"}, "[12]": {"target": "Serine/threonine-protein kinase B-raf (Homo sapiens) (UniProt P15056)", "sequence (P15056 whole entry)": "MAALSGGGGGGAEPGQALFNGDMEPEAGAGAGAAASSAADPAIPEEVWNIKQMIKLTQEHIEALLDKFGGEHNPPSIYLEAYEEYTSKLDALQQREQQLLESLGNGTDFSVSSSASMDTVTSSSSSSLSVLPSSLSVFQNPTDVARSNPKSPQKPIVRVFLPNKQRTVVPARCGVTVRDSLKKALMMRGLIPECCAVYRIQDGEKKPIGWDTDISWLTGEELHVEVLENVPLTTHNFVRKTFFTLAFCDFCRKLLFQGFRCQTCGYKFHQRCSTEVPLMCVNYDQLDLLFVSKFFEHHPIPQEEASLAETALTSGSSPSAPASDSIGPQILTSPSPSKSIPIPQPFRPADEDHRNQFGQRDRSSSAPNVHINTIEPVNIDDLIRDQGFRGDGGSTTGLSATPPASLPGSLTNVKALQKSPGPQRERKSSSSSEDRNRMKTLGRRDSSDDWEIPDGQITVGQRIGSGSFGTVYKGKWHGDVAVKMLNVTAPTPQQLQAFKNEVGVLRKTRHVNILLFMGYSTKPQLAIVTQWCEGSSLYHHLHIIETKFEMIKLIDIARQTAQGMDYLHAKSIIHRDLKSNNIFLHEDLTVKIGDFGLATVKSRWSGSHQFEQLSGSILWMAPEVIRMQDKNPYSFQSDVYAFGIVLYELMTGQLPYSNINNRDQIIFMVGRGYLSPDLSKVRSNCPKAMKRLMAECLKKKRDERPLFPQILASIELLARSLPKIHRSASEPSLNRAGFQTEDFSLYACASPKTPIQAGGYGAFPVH", "test": "Inhibition of human BRAF at 1 uM relative to control"}, "[13]": {"target": "Serine/threonine-protein kinase NLK (Homo sapiens) (UniProt Q9UBE8)", "sequence (Q9UBE8 whole entry)": "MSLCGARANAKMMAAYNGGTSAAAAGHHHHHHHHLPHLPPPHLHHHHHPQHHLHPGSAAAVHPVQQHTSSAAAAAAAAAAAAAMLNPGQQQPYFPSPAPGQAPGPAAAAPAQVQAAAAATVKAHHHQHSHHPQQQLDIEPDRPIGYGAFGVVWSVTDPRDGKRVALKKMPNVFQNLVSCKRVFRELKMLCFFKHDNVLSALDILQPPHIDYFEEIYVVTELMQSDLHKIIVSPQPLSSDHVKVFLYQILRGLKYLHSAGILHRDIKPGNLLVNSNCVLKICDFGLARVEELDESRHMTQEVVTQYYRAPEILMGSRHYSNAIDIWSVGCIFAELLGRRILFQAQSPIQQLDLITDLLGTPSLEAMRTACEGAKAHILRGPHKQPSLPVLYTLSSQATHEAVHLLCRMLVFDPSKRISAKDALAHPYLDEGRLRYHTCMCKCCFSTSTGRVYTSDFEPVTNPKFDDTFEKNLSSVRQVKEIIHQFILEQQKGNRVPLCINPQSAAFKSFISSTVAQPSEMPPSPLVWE", "test": "Inhibition of human NLK at 1 uM relative to control"}, "[14]": {"target": "Mitogen-activated protein kinase kinase kinase 10 (Homo sapiens) (UniProt Q02779)", "test": "Inhibition of human MLK2 at 1 uM relative to control"}, "[15]": {"target": "BDNF/NT-3 growth factors receptor (Homo sapiens) (UniProt Q16620)", "sequence (Q16620 32-822 limits assumed)": "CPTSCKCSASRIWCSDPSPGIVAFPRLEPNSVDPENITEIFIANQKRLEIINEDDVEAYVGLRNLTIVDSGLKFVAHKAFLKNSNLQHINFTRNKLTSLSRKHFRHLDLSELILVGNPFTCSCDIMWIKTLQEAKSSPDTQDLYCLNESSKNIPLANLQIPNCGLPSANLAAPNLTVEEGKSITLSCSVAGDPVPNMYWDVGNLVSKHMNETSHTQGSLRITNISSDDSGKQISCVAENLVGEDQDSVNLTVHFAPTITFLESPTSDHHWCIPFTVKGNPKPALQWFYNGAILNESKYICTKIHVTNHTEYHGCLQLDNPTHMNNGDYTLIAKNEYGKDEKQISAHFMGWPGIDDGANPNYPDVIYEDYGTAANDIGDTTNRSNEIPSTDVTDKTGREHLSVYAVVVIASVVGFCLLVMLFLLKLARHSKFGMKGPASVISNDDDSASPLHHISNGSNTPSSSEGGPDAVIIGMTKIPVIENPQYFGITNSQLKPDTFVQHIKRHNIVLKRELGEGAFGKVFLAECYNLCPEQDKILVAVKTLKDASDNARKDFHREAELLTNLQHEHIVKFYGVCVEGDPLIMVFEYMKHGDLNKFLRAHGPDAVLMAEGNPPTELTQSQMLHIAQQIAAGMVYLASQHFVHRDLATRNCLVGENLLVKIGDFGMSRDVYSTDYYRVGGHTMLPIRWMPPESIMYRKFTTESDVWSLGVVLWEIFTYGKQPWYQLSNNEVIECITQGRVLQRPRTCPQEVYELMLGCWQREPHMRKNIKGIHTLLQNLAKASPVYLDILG", "test": "Inhibition of human TRKB at 1 uM relative to control"}, "[16]": {"target": "Cyclin-dependent kinase 8 (Mus musculus) (UniProt Q8R3L8)", "test": "Inhibition of CDK8 in mouse BMDC cells assessed as reduction in IFNgamma-induced STAT1 phosphorylation at S727 residue pretreated with IFNgamma for 2 hrs followed by compound treatment for 24 hrs by Western blot assay", "type": "cell-based"}, "[17]": {"target": "Serine/threonine-protein kinase mTOR (Homo sapiens) (UniProt P42345)", "test": "Inhibition of human MTOR at 1 uM relative to control"}},
  "note": "Activity calls are given as the source filed them. No cut-off for these calls is given here.",
  "data": [
    {"compound": "Cc1ccc(NC(=O)CCc2cccc(-c3cnc4[nH]ccc4c3)c2)cc1C(F)(F)F", "values": [
      {"measurement": "inhibition", "setting": "[1]", "value": 0, "unit": "%"},
      {"measurement": "inhibition", "setting": "[2]", "value": 36, "unit": "%"},
      {"measurement": "inhibition", "setting": "[3]", "value": 10, "unit": "%"},
      {"measurement": "inhibition", "setting": "[4]", "value": 0, "unit": "%"},
      {"measurement": "inhibition", "setting": "[5]", "value": 6, "unit": "%"},
      {"measurement": "inhibition", "setting": "[6]", "value": 10, "unit": "%"},
      {"measurement": "inhibition", "setting": "[7]", "value": 9, "unit": "%"},
      {"measurement": "inhibition", "setting": "[8]", "value": 6, "unit": "%"},
      {"measurement": "AUC", "setting": "[9]", "value": 983.09, "unit": "ng·h/mL"},
      {"measurement": "inhibition", "setting": "[10]", "value": 8, "unit": "%"},
      {"measurement": "inhibition", "setting": "[11]", "value": 0, "unit": "%"},
      {"measurement": "inhibition", "setting": "[12]", "value": 15, "unit": "%"},
      {"measurement": "inhibition", "setting": "[13]", "value": 0, "unit": "%"},
      {"measurement": "inhibition", "setting": "[14]", "value": 5, "unit": "%"},
      {"measurement": "inhibition", "setting": "[15]", "value": 24, "unit": "%"},
      {"measurement": "inhibition", "setting": "[16]", "value": "Active"},
      {"measurement": "inhibition", "setting": "[17]", "value": 5, "unit": "%"}
    ]}
  ]
}
